Assay results taken from patent US10676459B2, “Antifungal compounds and processes for making” (MYCOVIA PHARMACEUTICALS INC., priority 2015, dated 2020).

How the values were obtained:
[1] = XRPD stability post 2 weeks storage at temperature and humidity; assay type: physicochemical
Protocol: X-Ray Powder Diffraction patterns were collected on a Bruker AXS C2 GADDS diffractometer using Cu Kα radiation (40 kV, 40 mA), automated XYZ stage, laser video microscope for auto-sample positioning and a Hi Star 2-dimensional area detector. X-ray optics consists of a single Göbel multilayer mirror coupled with a pinhole collimator of 0.3 mm. A weekly performance check is carried out using a certified standard NIST 1976 Corundum (flat plate). The beam divergence, i.e. the effective size of the X-ray beam on the sample, was approximately 4 mm. A Θ-Θ continuous scan mode was employed with a sample-detector distance of 20 cm which gives an effective […] of 3.2°-29.7°. Typically the sample would be exposed to the X-ray beam for 120 seconds. The software used for data collection was GADDS for XP/2000 4.1.43 and the data were analysed and presented using Diffrac Plus EVA v13.0.0.2 or v15.0.0.0. […]
X-Ray Powder Diffraction patterns were also collected on a Bruker D8 diffractometer using Cu Kα radiation (40 kV, 40 mA), 0-20 goniometer, and divergence of V4 and receiving slits, a Ge monochromator and a Lynxeye detector. […] The software used for data collection was Diffrac Plus XRD Commander v2.6.1 and the data were analysed and presented using Diffrac Plus EVA v13.0.0.2 or v15.0.0.0. […]

[2] = Gravimetric Vapor Sorption (GVS) isotherm and XRPD post GVS; assay type: physicochemical
Protocol: Gravimetric Vapor Sorption (GVS) isotherms were obtained using a SMS DVS Intrinsic moisture sorption analyser, controlled by DVS Intrinsic Control software v1.0.1.2 (or v 1.0.1.3). The sample temperature was maintained at 25° C. by the instrument controls. The humidity was controlled by mixing streams of dry and wet nitrogen, with a total flow rate of 200 mL/min. The relative humidity was measured by a calibrated Rotronic probe (dynamic range of 1.0-100% RH), located near the sample. The weight change, (mass relaxation) of the sample as a function of % RH was constantly monitored by the microbalance (accuracy ±0.005 mg). Typically 5-20 mg of sample was placed in a tared mesh stainless steel basket under ambient conditions. The sample was loaded and unloaded at 40% RH and 25° C. (typical room conditions). A moisture sorption isotherm was performed as outlined below (2 scans giving 1 complete cycle). The standard isotherm was performed at 25° C. at 10% RH intervals over a 0-90% RH range. Data analysis was undertaken in Microsoft Excel using DVS Analysis Suite v6.2 (or 6.1 or 6.0).
Method Parameters for SMS DVS Intrinsic Experiments
The sample was recovered after completion of the isotherm and re-analysed by XRPD.

[3] = Solubility and pH of saturated solution; assay type: physicochemical
[4] = Human multiple-dose pharmacokinetic comparison; assay type: in vivo; conditions: for Cmax / Tmax: in vivo
Protocol: Human Pharmacokinetic Comparison of Compound 1 X-Hydrate and Compound 1 Anhydrous Form
Table 6 compares human multiple-dose pharmacokinetic (PK) parameters between dosing with Compound 1 X-hydrate and Compound 1 Anhydrous form. Compound 1 X-hydrate was dosed at 600 mg twice daily (bid) for three days followed by dosing at 300 mg once daily (qd) for 10 days. Compound 1 Anhydrous form was dosed at 300 mg qd for 14 days.

[5] = 600 mg bid loading dose for 3 days, then 300 mg qd maintenance for 10 days
[6] = 300 mg qd for 14 days vs X-hydrate 600 mg bid for three days then 300 mg qd for 10 days

Structure (SMILES): O[C@@](Cn1cnnn1)(c1ccc(F)cc1F)C(F)(F)c1ccc(-c2ccc(OCC(F)(F)F)cc2)cn1 [Compound 1 X-Hydrate]
- XRPD stability post 2 weeks at 25° C. & 97% RH ([1]; 25° C. & 97% RH): No change in crystalline form
- XRPD stability post 2 weeks at 40° C. & 75% RH ([1]; 40° C. & 75% RH): No change in crystalline form
- GVS sample hysteresis ([2]; 0-90% RH, 25° C.): 90% RH. No sample hysteresis
- GVS water uptake at 90% RH ([2]; 25° C., listed as X-hydrate 1): 0.59% w/w water uptake at
- XRPD post GVS ([2]; after GVS experiment): No form change after GVS
- solubility [3]: < 1 µg/mL
- pH of saturated solution ([3]; listed as X-hydrate 1): pH of saturated solution = 8.6
- AUC0-8 h [4, 5]: 17600 ngh/mL
- Cmax [4, 5]: 2520 ng/mL
- Tmax [4, 5]: 5 h

Structure (SMILES): O[C@@](Cn1cnnn1)(c1ccc(F)cc1F)C(F)(F)c1ccc(-c2ccc(OCC(F)(F)F)cc2)cn1 [Compound 1 Anhydrous]
- GVS water uptake at 90% RH ([2]; 25° C., listed as Anhydrous 1): 0.14% w/w water uptake at
- pH of saturated solution ([3]; listed as Anhydrous 1): pH of saturated solution = 8.7
- AUC0-8 h ([4]; 300 mg qd for 14 days): 35653 ngh/mL
- area-under-the-curve (AUC) compared with Compound 1 X-hydrate [4, 6]: higher
- maximal concentration (Cmax) compared with Compound 1 X-hydrate [4, 6]: higher
- Cmax ([4]; 300 mg qd for 14 days): 4690 ng/mL
- Tmax ([4]; 300 mg qd for 14 days): 5 h
